{
  "source": "patent US20230374034A1",
  "about": "“NOVEL BICYCLIC COMPOUNDS” (PRISM BIOLAB CO., LTD., priority 2020, published 2023)",
  "data": [
    {"system": "NICD (Notch intracellular domain) CSL-bla reporter in HeLa cells", "assay": "Notch assay (CellSensor T-REx NICD CSL-bla HeLa beta-lactamase reporter; Method 1 / Method 2)", "assay_type": "cell-based", "conditions": "Homo sapiens, 10 μM compound, Method 1 (10× compound prepared in assay medium, added to plated cells), read-out: inhibiton (%) at 10 μM", "outline": "(§1)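 HeLa cells carrying doxycycline-inducible NICD and a CSL-driven beta-lactamase reporter, 10^3 cells/well, were treated with compound plus doxycycline for 16-20 h at 37 °C. CCF4-AM substrate was loaded for 4 h at room temperature; background-subtracted blue (460 nm)/green (530 nm) emission ratio taken per well.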", "units": {"inhibition at 10 µM": "%"}, "values": [
      {"compound": "CCCCCCOC(=O)N1O[C@@H](C(C)C)C(=O)N2C1CN(Cc1ccccc1)C(=O)[C@@H]2Cc1ccc(O)cc1", "note": "(stereo partly drawn) [Compound I-3, (3S,6S)-hexyl 8-benzyl-6-(4-hydroxybenzyl)-3-isopropyl-4,7-dioxohexahydropyrazino[2,1-c][1,2,4]oxadiazine-1(6H)-carboxylate]", "inhibition at 10 µM": 53.6},
      {"compound": "CCCC[C@@H]1ON(C(=O)OCc2cccc3ccccc23)C2CN(C(C)C)C(=O)[C@H](Cc3ccc(O)cc3)N2C1=O", "note": "(stereo partly drawn) [Compound I-23, (3S,6S)-naphthalen-1-ylmethyl 3-butyl-6-(4-hydroxybenzyl)-8-isopropyl-4,7-dioxohexahydropyrazino[2,1-c][1,2,4]oxadiazine-1(6H)-carboxylate]", "inhibition at 10 µM": 50.4},
      {"compound": "CC(C)CCN1CC2N(C(=O)OCc3cccc4ccccc34)O[C@@H](CC(N)=O)C(=O)N2[C@@H](CC2CCCCC2)C1=O", "note": "(stereo partly drawn) [Compound I-27, (3S,6S)-naphthalen-1-ylmethyl 3-(2-amino-2-oxoethyl)-6-(cyclohexylmethyl)-8-isopentyl-4,7-dioxohexahydropyrazino[2,1-c][1,2,4]oxadiazine-1(6H)-carboxylate]", "inhibition at 10 µM": 62.9}
    ]},
    {"system": "NICD (Notch intracellular domain) CSL-bla reporter in HeLa cells", "assay": "Notch assay (CellSensor T-REx NICD CSL-bla HeLa beta-lactamase reporter; Method 1 / Method 2)", "assay_type": "cell-based", "conditions": "Homo sapiens, 10 μM compound, Method 2 (40 nL of 1000× compound added to plate with Echo), read-out: inhibiton (%) at 10 μM", "outline": "as §1", "units": {"inhibition at 10 µM": "%"}, "values": [
      {"compound": "CCCCOC(=O)N1O[C@H](CC2CCCCC2)C(=O)N2C1CN(CCC(C)C)C(=O)[C@@H]2CCCCN", "note": "(stereo partly drawn) [Compound I-35, (3R,6S)-butyl 6-(4-aminobutyl)-3-(cyclohexylmethyl)-8-isopentyl-4,7-dioxohexahydropyrazino[2,1-c][1,2,4]oxadiazine-1(6H)-carboxylate]", "inhibition at 10 µM": 54},
      {"compound": "CC(C)C[C@H]1ON(C(=O)OCCc2ccccc2)C2CN([C@@H](Cc3ccc(O)cc3)C(=O)NCCc3ccccc3)C(=O)[C@H](Cc3ccc(O)cc3)N2C1=O", "note": "(stereo partly drawn) [Compound I-102, phenethyl (3R,6S)-6-(4-hydroxybenzyl)-8-((S)-3-(4-hydroxyphenyl)-1-oxo-1-(phenethylamino)propan-2-yl)-3-isobutyl-4,7-dioxohexahydropyrazino[2,1-c][1,2,4]oxadiazine-1(6H)-carboxylate]", "inhibition at 10 µM": 67.3},
      {"compound": "CCCC[C@@H](C(=O)NCCCc1ccccc1)N1CC2N(C(=O)OCCc3ccccc3)O[C@H](CC(C)C)C(=O)N2[C@@H](CCC(N)=O)C1=O", "note": "(stereo partly drawn) [Compound I-124, phenethyl (3R,6S)-6-(3-amino-3-oxopropyl)-3-isobutyl-4,7-dioxo-8-((S)-1-oxo-1-((3-phenylpropyl)amino)hexan-2-yl)hexahydropyrazino[2,1-c][1,2,4]oxadiazine-1(6H)-carboxylate]", "inhibition at 10 µM": 57.1},
      {"compound": "CC(C)CCNC(=O)[C@H](CC(C)C)N1CC2N(C(=O)OCCc3ccc(O)cc3)O[C@H](Cc3ccccc3)C(=O)N2[C@@H](C)C1=O", "note": "(stereo partly drawn) [Compound I-120, 4-hydroxyphenethyl (3R,6S)-3-benzyl-8-((S)-1-(isopentylamino)-4-methyl-1-oxopentan-2-yl)-6-methyl-4,7-dioxohexahydropyrazino [2,1-c][1,2,4]oxadiazine-1(6H)-carboxylate]", "inhibition at 10 µM": 67.1},
      {"compound": "CCCCCCNC(=O)N1O[C@H](Cc2ccccc2)C(=O)N2C1CN(CCC(c1ccccc1)c1ccccc1)C(=O)[C@@H]2CCC(N)=O", "note": "(stereo partly drawn) [Compound I-57, (3R,6S)-6-(3-amino-3-oxopropyl)-3-benzyl-8-(3,3-diphenylpropyl)-N-hexyl-4,7-dioxohexahydropyrazino[2,1-c][1,2,4]oxadiazine-1(6H)-carboxamide]", "inhibition at 10 µM": 63.4},
      {"compound": "O=C1[C@H](CO)N2C(=O)[C@@H](Cc3ccc(O)cc3)ON(C(=O)OCC3CCCCC3)C2CN1CCc1cccc2ccccc12", "note": "(stereo partly drawn) [Compound I-47, (3R,6S)-cyclohexylmethyl 3-(4-hydroxybenzyl)-6-(hydroxymethyl)-8-(2-(naphthalen-1-yl)ethyl)-4,7-dioxohexahydropyrazino[2,1-c][1,2,4]oxadiazine-1(6H)-carboxylate]", "inhibition at 10 µM": 71.4},
      {"compound": "CCCC[C@@H](C(=O)NCCCC(C)C)N1CC2N(C(=O)OCCc3ccc(O)cc3)O[C@H](Cc3ccccc3)C(=O)N2[C@@H](Cc2ccc(O)cc2)C1=O", "note": "(stereo partly drawn) [Compound I-112, 4-hydroxyphenethyl (3R,6S)-3-benzyl-6-(4-hydroxybenzyl)-8-((S)-1-((4-methylpentyl)amino)-1-oxohexan-2-yl)-4,7-dioxohexahydropyrazino[2,1-c][1,2,4]oxadiazine-1(6H)-carboxylate]", "inhibition at 10 µM": 54.2},
      {"compound": "CC(C)CCOC(=O)N1O[C@H](Cc2ccc(O)cc2)C(=O)N2C1CN([C@@H](Cc1ccc(O)cc1)C(=O)NCCc1ccccc1)C(=O)[C@@H]2Cc1ccc(O)cc1", "note": "(stereo partly drawn) [Compound I-117, isopentyl (3R,6S)-3,6-bis(4-hydroxybenzyl)-8-((S)-3-(4-hydroxyphenyl)-1-oxo-1-(phenethylamino)propan-2-yl)-4,7-dioxohexahydropyrazino[2,1-c][1,2,4]oxadiazine-1(6H)-carboxylate]", "inhibition at 10 µM": 59.7},
      {"compound": "CC(C)C[C@@H](C(=O)NCCc1ccccc1)N1CC2N(C(=O)OCCc3ccccc3)O[C@H](Cc3ccc(O)cc3)C(=O)N2[C@@H](Cc2ccc(O)cc2)C1=O", "note": "(stereo partly drawn) [Compound I-115, phenethyl (3R,6S)-3,6-bis(4-hydroxybenzyl)-8-((S)-4-methyl-1-oxo-1-(phenethylamino)pentan-2-yl)-4,7-dioxohexahydropyrazino[2,1-c][1,2,4]oxadiazine-1(6H)-carboxylate]", "inhibition at 10 µM": 51.1},
      {"compound": "CC(C)CCNC(=O)[C@H](Cc1ccccc1)N1CC2N(C(=O)OCCc3ccccc3)O[C@H](CCC(N)=O)C(=O)N2[C@@H](Cc2ccccc2)C1=O", "note": "(stereo partly drawn) [Compound I-90, phenethyl (3R,6S)-3-(3-amino-3-oxopropyl)-6-benzyl-8-((S)-1-(isopentylamino)-1-oxo-3-phenylpropan-2-yl)-4,7-dioxohexahydropyrazino[2,1-c][1,2,4]oxadiazine-1(6H)-carboxylate]", "inhibition at 10 µM": 62.4},
      {"compound": "CC(C)CCOC(=O)N1O[C@H](C)C(=O)N2C1CN([C@@H](Cc1ccccc1)C(=O)NCCO)C(=O)[C@@H]2Cc1ccccc1", "note": "(stereo partly drawn) [Compound I-88, isopentyl (3R,6S)-6-benzyl-8-((S)-1-((2-hydroxyethyl)amino)-1-oxo-3-phenylpropan-2-yl)-3-methyl-4,7-dioxohexahydropyrazino[2,1-c][1,2,4]oxadiazine-1(6H)-carboxylate]", "inhibition at 10 µM": 63.9},
      {"compound": "CCCC[C@@H](C(=O)NCCC(C)C)N1CC2N(C(=O)OCCc3ccc(O)cc3)O[C@H](CC(C)C)C(=O)N2[C@@H](Cc2ccc(O)cc2)C1=O", "note": "(stereo partly drawn) [Compound I-97, 4-hydroxyphenethyl (3R,6S)-6-(4-hydroxybenzyl)-3-isobutyl-8-((S)-1-(isopentylamino)-1-oxohexan-2-yl)-4,7-dioxohexahydropyrazino[2,1-c][1,2,4]oxadiazine-1(6H)-carboxylate]", "inhibition at 10 µM": 57.3},
      {"compound": "NC(=O)CC[C@H]1C(=O)N([C@@H](Cc2ccccc2)C(=O)NCCCc2ccccc2)CC2N(C(=O)OCCc3ccc(O)cc3)O[C@H](Cc3ccccc3)C(=O)N21", "note": "(stereo partly drawn) [Compound I-126, 4-hydroxyphenethyl (3R,6S)-6-(3-amino-3-oxopropyl)-3-benzyl-4,7-dioxo-8-((S)-1-oxo-3-phenyl-1-((3-phenylpropyl)amino)propan-2-yl)hexahydropyrazino [2,1-c][1,2,4]oxadiazine-1(6H)-carboxylate]", "inhibition at 10 µM": 67.2}
    ]}
  ]
}
